Literature values as cited in patent US11351213B2, “Composition for the prevention and/or treatment of respiratory tract disorders” (NEILOS S.R.L., priority 2017, dated 2022).

Experiments:
[1] = system: COPD patients
[2] = system: patients affected by COPD; conditions: HIACE study
[3] = not given; remark: listed apart in the source
[4] = COPD patients under treatment for six months

Structure (SMILES)	reduction of days of malaise ([1]; COPD) [days/month]	reduction of exacerbations of the pathology ([1]; COPD) [exacerbations/month]	reduction of hospitalisations for COPD ([1]; COPD) [%]	FEV1 (forced expiratory volume at the first second) [1, 4]	maximum expiratory flow [1, 4]	FEV1 ([1]; after a brief therapy of 4 weeks)	exacerbations ([2]; COPD, reduction from 1.71 times a year) [times a year]	forced expiratory flow ([2]; patients affected by COPD)	activity on bronchi in vivo	activity on bronchi in vitro [3]
CC(=O)N[C@@H](CS)C(=O)O [NAC, N-acetyl-L-cysteine]	0.56	0.07	30	significant increase	significant increase	from 25% to 30%	0.96	rose from 25% to 75%	–	–
O=c1c2ccccc2nc2n1CC[C@@H]2O [Vasicinone, vasicinone]	–	–	–	–	–	–	–	–	bronchoconstricting activity	bronchodilating activity
O[C@H]1CCN2Cc3ccccc3N=C12 [vasicine]	–	–	–	–	–	–	–	–	bronchodilating activity	bronchodilating activity
